In patent publication US20260207585A1, “METHODS AND COMPOSITIONS FOR THE TREATMENT OF PARKINSON'S DISEASE, HUNTINGTON'S DISEASE, AMYOTROPHIC LATERAL SCLEROSIS, AND LEARNING DISORDERS” (Cedars-Sinai Medical Center, priority 2022, published 2026):

Columns and labels:
Assay type in all cases: biochemical
NSD3 = target: T1, NSD3 (Homo sapiens, UniProt Q9BZ95); assay: Methyltransferase inhibition panel: NSD3; conditions: control compound; substrate Nucleosomes 0.05 mg/mL
T1 sequence (Q9BZ95 1-1437): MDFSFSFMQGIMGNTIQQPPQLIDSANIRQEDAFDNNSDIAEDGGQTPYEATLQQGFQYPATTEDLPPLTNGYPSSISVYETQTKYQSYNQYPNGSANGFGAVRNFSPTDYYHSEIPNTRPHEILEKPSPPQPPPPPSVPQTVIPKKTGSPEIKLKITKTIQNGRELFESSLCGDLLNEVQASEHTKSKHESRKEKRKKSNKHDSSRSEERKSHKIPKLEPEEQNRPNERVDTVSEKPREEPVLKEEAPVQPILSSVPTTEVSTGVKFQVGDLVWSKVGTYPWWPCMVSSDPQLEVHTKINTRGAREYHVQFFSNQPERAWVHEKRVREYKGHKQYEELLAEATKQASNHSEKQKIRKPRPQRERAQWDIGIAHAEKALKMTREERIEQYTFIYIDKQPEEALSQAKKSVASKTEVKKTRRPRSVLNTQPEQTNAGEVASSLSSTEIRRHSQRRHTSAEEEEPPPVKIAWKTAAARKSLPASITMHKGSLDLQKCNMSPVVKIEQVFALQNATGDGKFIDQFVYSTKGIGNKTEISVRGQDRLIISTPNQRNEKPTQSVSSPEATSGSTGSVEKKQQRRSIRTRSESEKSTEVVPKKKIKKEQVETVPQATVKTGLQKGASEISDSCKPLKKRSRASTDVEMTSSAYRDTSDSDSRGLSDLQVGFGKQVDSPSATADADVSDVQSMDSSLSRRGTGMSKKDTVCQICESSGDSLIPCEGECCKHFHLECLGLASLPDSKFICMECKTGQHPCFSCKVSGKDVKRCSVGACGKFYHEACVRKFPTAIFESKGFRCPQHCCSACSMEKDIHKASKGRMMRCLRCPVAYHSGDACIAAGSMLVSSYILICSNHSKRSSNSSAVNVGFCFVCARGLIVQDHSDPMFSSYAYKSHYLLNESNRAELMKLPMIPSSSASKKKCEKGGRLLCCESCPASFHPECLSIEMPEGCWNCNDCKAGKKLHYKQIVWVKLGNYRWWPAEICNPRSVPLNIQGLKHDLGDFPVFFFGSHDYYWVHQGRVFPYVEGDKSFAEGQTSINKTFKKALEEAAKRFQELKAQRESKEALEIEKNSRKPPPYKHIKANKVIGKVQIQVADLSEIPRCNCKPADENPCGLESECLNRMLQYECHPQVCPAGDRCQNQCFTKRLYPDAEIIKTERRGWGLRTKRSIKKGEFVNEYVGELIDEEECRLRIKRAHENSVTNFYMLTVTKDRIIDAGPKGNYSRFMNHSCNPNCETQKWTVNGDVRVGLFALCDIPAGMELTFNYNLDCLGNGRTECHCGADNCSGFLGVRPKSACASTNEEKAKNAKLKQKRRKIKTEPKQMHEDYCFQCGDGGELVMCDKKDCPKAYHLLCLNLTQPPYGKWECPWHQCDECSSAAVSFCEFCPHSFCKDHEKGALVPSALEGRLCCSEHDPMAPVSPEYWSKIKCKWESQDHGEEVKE
Procedure: (§1) The ability of ETP69 to inhibit methyltransferases was tested.

ASH1L = ASH1L (Homo sapiens, UniProt Q9NR48); assay: Methyltransferase inhibition panel: ASH1L; conditions: control compound; substrate Nucleosomes 0.05 mg/mL
Procedure: as §1

SET8 = target: T2, SET8 (Homo sapiens, UniProt Q9NQR1); assay: Methyltransferase inhibition panel: SET8; conditions: control compound; substrate Nucleosomes 0.05 mg/mL
T2 sequence (Q9NQR1 1-393): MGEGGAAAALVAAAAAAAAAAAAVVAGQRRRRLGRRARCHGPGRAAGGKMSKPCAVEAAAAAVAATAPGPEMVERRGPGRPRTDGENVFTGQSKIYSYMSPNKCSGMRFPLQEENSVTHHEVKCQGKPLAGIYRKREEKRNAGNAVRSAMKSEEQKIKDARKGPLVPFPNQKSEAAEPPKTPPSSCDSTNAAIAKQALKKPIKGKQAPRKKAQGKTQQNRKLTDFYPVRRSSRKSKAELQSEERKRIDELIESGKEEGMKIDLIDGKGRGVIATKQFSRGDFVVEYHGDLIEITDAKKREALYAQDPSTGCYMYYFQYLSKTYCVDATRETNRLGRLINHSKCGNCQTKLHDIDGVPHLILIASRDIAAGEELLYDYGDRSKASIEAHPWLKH
Procedure: as §1

DNMT3b/3L = DNMT3b/3L (Homo sapiens, UniProt Q9UBC3); assay: Methyltransferase inhibition panel: DNMT3b/3L; conditions: read-out: Control IC50*
Procedure: as §1

SUV420H1TV2 = SUV420H1TV2 (Homo sapiens, UniProt Q4FZB7); assay: Methyltransferase inhibition panel: SUV420H1TV2; conditions: control compound; substrate Nucleosomes 0.05 mg/mL
Procedure: as §1

PRMT3 = PRMT3 (Homo sapiens, UniProt O60678); assay: Methyltransferase inhibition panel: PRMT3; conditions: control compound; substrate Histone H4 5 μM
Procedure: as §1

SET1b Complex = SET1b Complex (Homo sapiens, UniProt Q9UPS6); assay: Methyltransferase inhibition panel: SET1b Complex; conditions: control compound; substrate Core Histone 0.05 mg/mL
Procedure: as §1

NSD1 = NSD1 (Homo sapiens, UniProt Q96L73); assay: Methyltransferase inhibition panel: NSD1; conditions: control compound; substrate Nucleosomes 0.05 mg/mL
Procedure: as §1

MLL4 Complex = MLL4 Complex (Homo sapiens, UniProt Q9UMN6); assay: Methyltransferase inhibition panel: MLL4 Complex; conditions: control compound; substrate Nucleosomes 0.05 mg/mL
Procedure: as §1

MLL1 Complex = MLL1 Complex (Homo sapiens, UniProt Q03164); assay: Methyltransferase inhibition panel: MLL1 Complex; conditions: control compound; substrate Nucleosomes 0.05 mg/mL
Procedure: as §1

MLL3 Complex = MLL3 Complex (Homo sapiens, UniProt Q8NEZ4); assay: Methyltransferase inhibition panel: MLL3 Complex; conditions: control compound; substrate Nucleosomes 0.05 mg/mL
Procedure: as §1

MLL2 Complex = MLL2 Complex (Homo sapiens, UniProt O14686); assay: Methyltransferase inhibition panel: MLL2 Complex; conditions: control compound; substrate Nucleosomes 0.05 mg/mL
Procedure: as §1

NRMT1 = target: T3, NRMT1 (Homo sapiens, UniProt Q9BV86); assay: Methyltransferase inhibition panel: NRMT1; conditions: control compound; substrate RCC1 5 μM
T3 sequence (Q9BV86 1-223): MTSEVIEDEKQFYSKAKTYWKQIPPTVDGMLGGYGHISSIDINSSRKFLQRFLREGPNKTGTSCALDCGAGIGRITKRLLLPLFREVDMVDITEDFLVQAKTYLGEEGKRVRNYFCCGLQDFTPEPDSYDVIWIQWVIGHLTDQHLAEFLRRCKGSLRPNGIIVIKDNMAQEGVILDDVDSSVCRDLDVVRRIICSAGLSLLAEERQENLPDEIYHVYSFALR
Procedure: as §1

PRMT6 = PRMT6 (Homo sapiens, UniProt Q96LA8); assay: Methyltransferase inhibition panel: PRMT6; conditions: control compound; substrate GST-GAR 5 μM
Procedure: as §1

GLP = target: T4, GLP (Homo sapiens, UniProt Q9H9B1); assay: Methyltransferase inhibition panel: GLP; conditions: read-out: Control IC50*
T4 sequence (Q9H9B1 1-1298): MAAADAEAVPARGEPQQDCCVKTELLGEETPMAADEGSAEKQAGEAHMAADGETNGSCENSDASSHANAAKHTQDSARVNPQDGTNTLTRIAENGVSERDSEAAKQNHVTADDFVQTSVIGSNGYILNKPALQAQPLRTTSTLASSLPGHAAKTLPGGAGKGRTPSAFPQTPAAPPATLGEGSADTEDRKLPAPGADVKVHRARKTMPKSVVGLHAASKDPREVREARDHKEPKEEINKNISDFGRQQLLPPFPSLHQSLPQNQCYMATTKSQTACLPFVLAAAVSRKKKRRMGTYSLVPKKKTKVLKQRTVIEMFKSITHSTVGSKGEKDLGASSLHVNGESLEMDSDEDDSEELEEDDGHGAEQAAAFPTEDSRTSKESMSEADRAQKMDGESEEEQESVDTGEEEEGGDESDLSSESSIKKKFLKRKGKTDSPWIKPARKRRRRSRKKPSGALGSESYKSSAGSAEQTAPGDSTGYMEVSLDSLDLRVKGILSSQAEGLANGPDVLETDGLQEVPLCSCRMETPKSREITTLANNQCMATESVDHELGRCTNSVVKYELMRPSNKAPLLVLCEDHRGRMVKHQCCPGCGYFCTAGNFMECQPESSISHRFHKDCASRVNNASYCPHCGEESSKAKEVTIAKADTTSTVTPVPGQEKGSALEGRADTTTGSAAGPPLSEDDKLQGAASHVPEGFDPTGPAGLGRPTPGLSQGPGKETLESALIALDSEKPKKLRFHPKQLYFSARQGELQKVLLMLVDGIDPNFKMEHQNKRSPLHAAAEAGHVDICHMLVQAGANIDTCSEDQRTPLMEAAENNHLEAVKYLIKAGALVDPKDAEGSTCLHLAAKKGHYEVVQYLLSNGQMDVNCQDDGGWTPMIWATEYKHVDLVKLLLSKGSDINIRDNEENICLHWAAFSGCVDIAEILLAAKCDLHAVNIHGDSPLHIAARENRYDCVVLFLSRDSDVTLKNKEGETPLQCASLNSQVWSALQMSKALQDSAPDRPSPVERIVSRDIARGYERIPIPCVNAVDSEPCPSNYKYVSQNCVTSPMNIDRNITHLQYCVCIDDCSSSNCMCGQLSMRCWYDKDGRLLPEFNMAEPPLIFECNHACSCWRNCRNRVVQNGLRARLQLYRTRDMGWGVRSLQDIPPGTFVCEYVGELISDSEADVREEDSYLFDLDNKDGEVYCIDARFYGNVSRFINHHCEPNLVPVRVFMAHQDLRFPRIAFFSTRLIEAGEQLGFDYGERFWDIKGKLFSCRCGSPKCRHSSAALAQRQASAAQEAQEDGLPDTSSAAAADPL
Procedure: as §1

DNMT3a = DNMT3a (Homo sapiens, UniProt Q9Y6K1); assay: Methyltransferase inhibition panel: DNMT3a; conditions: read-out: Control IC50*
Procedure: as §1

SUV39H2 = SUV39H2 (Homo sapiens, UniProt Q9H5I1); assay: Methyltransferase inhibition panel: SUV39H2; conditions: control compound; substrate Histone H3 5 μM
Procedure: as §1

SMYD3 = target: T5, SMYD3 (Homo sapiens, UniProt Q9H7B4); assay: Methyltransferase inhibition panel: SMYD3; conditions: control compound; substrate MEKK2 0.5 μM
T5 sequence (Q9H7B4 1-428): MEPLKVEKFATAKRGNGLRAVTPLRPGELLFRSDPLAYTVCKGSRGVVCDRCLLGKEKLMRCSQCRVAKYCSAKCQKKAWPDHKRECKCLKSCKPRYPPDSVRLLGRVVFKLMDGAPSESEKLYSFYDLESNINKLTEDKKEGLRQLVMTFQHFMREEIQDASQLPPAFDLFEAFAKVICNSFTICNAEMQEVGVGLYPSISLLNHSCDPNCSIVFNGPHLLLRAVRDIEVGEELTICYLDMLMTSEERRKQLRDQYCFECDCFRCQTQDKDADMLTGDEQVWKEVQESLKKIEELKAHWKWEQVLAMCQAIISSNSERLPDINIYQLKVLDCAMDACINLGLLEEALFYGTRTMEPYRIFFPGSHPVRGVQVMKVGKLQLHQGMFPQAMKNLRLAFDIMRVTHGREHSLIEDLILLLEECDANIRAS
Procedure: as §1

SETDB1 = SETDB1 (Homo sapiens, UniProt Q15047); assay: Methyltransferase inhibition panel: SETDB1; conditions: control compound; substrate Histone H3 5 μM
Procedure: as §1

DNMT3b = DNMT3b (Homo sapiens, UniProt Q9UBC3); assay: Methyltransferase inhibition panel: DNMT3b; conditions: read-out: Control IC50*
Procedure: as §1

METTL21A = METTL21A (Homo sapiens, UniProt Q8WXB1); assay: Methyltransferase inhibition panel: METTL21A; conditions: control compound; substrate HSPA8-[CTD] 2.5 μM
Procedure: as §1

SETD2 = SETD2 (Homo sapiens, UniProt Q9BYW2); assay: Methyltransferase inhibition panel: SETD2; conditions: control compound; substrate Nucleosomes 0.05 mg/mL
Procedure: as §1

SET7/9 = target: T6, SET7/9 (Homo sapiens, UniProt Q8WTS6); assay: Methyltransferase inhibition panel: SET7/9; conditions: control compound; substrate Core Histone 0.05 mg/mL
T6 sequence (Q8WTS6 1-366): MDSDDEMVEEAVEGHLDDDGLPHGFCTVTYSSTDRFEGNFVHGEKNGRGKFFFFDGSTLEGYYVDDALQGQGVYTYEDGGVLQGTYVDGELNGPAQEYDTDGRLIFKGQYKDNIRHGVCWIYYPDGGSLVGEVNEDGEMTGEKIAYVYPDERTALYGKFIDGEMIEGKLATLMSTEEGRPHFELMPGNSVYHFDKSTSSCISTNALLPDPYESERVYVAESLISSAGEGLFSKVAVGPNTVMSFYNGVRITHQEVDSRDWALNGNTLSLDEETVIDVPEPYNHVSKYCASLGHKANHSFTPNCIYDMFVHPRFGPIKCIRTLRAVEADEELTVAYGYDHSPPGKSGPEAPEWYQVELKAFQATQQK
Procedure: as §1

Chain of SUV420H1TV2 (Q4FZB7 1-393 isoform Q4FZB7-2): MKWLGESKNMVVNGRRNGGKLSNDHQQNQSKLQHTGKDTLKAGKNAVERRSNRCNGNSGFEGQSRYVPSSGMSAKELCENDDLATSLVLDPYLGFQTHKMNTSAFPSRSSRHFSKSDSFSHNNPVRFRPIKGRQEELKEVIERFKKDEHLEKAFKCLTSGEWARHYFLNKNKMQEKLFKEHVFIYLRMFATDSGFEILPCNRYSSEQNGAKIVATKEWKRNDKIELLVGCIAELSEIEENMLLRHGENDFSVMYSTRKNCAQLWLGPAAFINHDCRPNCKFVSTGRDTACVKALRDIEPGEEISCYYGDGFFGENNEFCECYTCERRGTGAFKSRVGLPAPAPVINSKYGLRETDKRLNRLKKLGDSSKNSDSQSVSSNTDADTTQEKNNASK
Chain of METTL21A (Q8WXB1 whole entry): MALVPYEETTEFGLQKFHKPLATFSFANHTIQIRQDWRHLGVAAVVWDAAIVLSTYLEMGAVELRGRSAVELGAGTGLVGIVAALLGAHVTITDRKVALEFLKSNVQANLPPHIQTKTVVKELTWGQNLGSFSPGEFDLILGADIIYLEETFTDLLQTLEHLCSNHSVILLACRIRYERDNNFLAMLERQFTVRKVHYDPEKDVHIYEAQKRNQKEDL
Chain of SUV39H2 (Q9H5I1 whole entry): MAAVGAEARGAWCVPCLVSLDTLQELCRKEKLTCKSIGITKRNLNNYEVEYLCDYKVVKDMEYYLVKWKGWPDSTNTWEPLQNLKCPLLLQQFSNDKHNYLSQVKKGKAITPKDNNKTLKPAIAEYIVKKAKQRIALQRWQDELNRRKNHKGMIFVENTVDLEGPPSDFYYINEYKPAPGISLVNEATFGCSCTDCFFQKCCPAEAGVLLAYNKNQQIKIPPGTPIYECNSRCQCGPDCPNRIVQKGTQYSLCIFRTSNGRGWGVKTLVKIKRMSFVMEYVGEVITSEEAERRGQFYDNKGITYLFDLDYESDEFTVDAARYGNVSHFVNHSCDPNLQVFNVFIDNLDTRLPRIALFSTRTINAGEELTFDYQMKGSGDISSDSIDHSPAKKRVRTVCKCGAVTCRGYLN
Chain of MLL2 Complex (O14686 5319-5537): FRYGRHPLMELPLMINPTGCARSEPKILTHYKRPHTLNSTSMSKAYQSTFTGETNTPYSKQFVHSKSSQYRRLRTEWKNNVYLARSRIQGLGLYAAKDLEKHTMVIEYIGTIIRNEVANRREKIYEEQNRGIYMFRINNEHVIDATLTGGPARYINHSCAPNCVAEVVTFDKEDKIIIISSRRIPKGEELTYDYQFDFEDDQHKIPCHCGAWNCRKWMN
Chain of MLL2 Complex (Q9UBL3 whole entry, further chain): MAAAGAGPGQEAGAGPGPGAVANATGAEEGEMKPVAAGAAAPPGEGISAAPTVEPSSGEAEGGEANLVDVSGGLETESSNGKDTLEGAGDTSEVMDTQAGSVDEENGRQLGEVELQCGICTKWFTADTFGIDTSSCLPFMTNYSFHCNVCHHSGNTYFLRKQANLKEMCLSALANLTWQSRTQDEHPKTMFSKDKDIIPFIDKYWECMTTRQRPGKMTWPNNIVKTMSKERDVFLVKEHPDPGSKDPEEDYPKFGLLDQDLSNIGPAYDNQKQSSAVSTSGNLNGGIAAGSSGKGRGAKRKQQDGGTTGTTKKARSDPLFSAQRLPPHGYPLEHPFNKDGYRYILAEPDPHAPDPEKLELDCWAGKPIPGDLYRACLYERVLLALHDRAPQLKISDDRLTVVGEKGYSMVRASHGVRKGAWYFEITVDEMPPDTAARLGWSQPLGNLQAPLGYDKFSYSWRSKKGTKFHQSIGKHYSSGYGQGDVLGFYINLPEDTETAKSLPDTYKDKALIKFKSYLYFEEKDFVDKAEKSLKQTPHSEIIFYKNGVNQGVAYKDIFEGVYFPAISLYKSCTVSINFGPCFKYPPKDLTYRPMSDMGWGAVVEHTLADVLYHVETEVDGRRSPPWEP
Chain of MLL2 Complex (Q9C005 whole entry, further chain): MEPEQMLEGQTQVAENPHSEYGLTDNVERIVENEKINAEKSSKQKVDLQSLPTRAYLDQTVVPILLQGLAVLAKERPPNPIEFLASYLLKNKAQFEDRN
Chain of MLL2 Complex (Q15291 whole entry, further chain): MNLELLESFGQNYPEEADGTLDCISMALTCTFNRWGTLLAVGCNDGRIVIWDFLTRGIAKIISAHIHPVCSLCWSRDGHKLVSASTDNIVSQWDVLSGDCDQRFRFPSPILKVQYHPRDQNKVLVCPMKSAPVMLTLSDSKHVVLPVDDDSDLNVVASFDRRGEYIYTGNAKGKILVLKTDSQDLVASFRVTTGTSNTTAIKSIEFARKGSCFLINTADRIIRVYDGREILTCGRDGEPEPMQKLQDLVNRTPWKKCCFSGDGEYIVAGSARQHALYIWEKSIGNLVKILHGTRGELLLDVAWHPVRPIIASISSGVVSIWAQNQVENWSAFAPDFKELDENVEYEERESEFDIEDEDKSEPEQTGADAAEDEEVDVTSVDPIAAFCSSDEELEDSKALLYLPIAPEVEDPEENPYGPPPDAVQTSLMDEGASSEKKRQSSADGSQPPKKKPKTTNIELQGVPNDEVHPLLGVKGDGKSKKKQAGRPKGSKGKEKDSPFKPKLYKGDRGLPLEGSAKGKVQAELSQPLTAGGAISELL
Chain of PRMT6 (Q96LA8 whole entry): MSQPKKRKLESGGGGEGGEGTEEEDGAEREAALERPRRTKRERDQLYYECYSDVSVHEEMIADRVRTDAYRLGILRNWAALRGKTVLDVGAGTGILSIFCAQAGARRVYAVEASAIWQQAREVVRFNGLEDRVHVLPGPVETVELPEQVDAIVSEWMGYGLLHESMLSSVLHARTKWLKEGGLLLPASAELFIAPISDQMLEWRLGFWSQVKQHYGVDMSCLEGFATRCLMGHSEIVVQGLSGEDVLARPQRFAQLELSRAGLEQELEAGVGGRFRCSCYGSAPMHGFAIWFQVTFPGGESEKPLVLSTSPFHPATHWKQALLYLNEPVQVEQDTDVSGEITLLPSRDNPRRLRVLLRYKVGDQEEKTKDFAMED
Chain of DNMT3a (Q9Y6K1 whole entry, looked up): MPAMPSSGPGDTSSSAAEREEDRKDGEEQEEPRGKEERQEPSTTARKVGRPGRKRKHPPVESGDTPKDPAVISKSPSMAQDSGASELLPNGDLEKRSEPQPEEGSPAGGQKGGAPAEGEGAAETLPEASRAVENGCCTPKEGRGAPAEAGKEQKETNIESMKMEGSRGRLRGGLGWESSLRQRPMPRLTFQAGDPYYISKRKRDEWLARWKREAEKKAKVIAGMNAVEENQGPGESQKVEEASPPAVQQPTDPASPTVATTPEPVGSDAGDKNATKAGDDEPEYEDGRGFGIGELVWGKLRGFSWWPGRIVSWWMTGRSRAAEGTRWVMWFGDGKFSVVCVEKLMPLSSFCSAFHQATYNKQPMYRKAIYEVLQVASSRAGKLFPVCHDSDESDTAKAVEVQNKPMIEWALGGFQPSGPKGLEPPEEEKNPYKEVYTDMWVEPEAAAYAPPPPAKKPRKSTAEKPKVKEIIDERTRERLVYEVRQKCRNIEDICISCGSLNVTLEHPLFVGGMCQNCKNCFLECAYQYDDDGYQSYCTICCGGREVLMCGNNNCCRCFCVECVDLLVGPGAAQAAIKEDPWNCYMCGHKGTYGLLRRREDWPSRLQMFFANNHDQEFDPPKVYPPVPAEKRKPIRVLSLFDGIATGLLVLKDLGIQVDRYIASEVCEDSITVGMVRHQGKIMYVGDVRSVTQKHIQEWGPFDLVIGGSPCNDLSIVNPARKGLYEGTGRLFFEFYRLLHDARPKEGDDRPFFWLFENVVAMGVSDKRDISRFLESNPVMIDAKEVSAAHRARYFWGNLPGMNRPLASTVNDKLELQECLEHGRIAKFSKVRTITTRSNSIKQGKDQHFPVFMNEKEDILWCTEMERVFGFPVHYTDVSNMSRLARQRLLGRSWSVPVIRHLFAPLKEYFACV
Chain of PRMT3 (O60678 whole entry): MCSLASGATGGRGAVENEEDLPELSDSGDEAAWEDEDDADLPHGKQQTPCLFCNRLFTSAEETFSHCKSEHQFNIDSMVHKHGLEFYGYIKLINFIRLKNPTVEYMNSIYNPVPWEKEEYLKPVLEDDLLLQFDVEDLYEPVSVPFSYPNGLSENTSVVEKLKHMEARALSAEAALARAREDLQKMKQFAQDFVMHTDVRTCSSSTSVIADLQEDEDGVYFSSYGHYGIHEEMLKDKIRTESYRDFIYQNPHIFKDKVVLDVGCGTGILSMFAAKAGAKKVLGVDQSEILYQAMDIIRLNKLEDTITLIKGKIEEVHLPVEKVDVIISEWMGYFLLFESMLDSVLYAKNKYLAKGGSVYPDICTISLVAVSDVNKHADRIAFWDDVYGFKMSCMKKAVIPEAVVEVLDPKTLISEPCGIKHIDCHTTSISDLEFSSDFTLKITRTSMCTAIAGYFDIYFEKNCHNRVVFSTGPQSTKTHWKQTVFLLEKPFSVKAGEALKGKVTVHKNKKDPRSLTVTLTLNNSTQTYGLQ
Chain of MLL4 Complex (Q9UMN6 2490-2715): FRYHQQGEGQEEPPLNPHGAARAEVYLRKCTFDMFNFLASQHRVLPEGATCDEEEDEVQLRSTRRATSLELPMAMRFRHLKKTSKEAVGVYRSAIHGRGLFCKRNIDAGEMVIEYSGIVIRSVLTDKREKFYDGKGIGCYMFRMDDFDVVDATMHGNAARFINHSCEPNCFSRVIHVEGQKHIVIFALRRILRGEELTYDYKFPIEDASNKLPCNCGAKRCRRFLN
Chain of MLL4 Complex (Q9C005 whole entry, further chain): as the sequence (Q9C005 whole entry, further chain) above
Chain of MLL4 Complex (Q9UBL3 whole entry, further chain): as the sequence (Q9UBL3 whole entry, further chain) above
Chain of MLL4 Complex (Q15291 whole entry, further chain): as the sequence (Q15291 whole entry, further chain) above

## CN1C(=O)[C@@]23C[C@]4([C@]56C[C@@]78SS[C@@](CO)(C(=O)N7[C@H]5Nc5ccccc56)N(C)C8=O)c5ccccc5N[C@@H]4N2C(=O)[C@]1(CO)SS3 [Chaetocin, reference compound]
NSD3
  IC50: 85.2 nM
ASH1L
  IC50: 30.8 nM

## Cc1ccc(NC2=CC(=O)c3sc(C)nc3C2=O)cc1 [Ryuvidine, reference compound]
SET8
  IC50: 109 nM

## Nc1ncnc2c1ncn2[C@@H]1O[C@H](CSCC[C@H](N)C(=O)O)[C@@H](O)[C@H]1O [SAH, reference compound]
DNMT3b/3L
  IC50: 19.3 nM
SUV420H1TV2
  IC50: 117000 nM
PRMT3
  IC50: 870 nM
SET1b Complex
  IC50: 8590 nM
NSD1
  IC50: 7510 nM
MLL4 Complex
  IC50: 816 nM
MLL1 Complex
  IC50: 205 nM
MLL3 Complex
  IC50: 18900 nM
MLL2 Complex
  IC50: 21200 nM
NRMT1
  IC50: 310 nM
PRMT6
  IC50: 204 nM
GLP
  IC50: 553 nM
DNMT3a
  IC50: 154 nM
SUV39H2
  IC50: 44300 nM
SMYD3
  IC50: 14200 nM
SETDB1
  IC50: 1040 nM
DNMT3b
  IC50: 37.9 nM
METTL21A
  IC50: 64600 nM
SETD2
  IC50: 3060 nM
SET7/9
  IC50: 82900 nM
